Results as given in US8318207B2, “Encapsulation and controlled release of small molecules for intracellular delivery using thermally responsive nanocapsules” (University of South Carolina, priority 2009, dated 2012).

Tests used:
3T3 fibroblasts [1] = assay: Collagen production, Sircol assay; format: cell-based; settings: 0.22 M extracellular trehalose, 40 min incubation (0.5 mg/ml nanocapsules where present)
Procedure: The immediate cell viability, proliferation, and collagen production of 3T3 cells exposed to 0.22 M extracellular trehalose and 0.5 mg/ml nanocapsules (loaded with trehalose) (As will be shown later in Results and Discussion that the intracellular trehalose is ˜0.3 M under this loading condition) were further studied to test the effectiveness of the nanocapsule based approach for intracellular delivery of trehalose. Immediate cell viability and proliferation of the 3T3 cells after loading with trehalose were studied in the same way as that described for 3T3 cells loaded with empty nanocapsules in section 2.6. The collagen production of cells exposed to 0 M trehalose and 0 mg/ml nanocapsules (control), 0.22 M extracellular trehalose and 0 mg/ml nanocapsules (trehalose without NE), and 0.22 M extracellular trehalose and 0.5 mg/ml extracellular nanocapsules (nanoencapsulated with trehalose) was quantified using the Sircol™ Assay kit (Biocolor, Belfast, N. Ireland). To do this, the cells treated under the three conditions were further cultured for 3 days. […] The absorbance at 540 nm wavelength of the dye was then measured using a BioTek Synergy 2 microplate reader (Winooski, Vt.). Collagen concentration in the collected medium was quantified by comparing its absorbance subtracted with the absorbance of the blank sample with that of the standards.

NIH 3T3 fibroblasts = assay: Long-term (3-day) cell proliferation; format: cell-based; settings: 0.22 M extracellular trehalose, 40 min incubation (0.5 mg/ml nanocapsules where present)
Procedure: For long-term cell proliferation studies, cells were seeded in 33 mm Petri dishes at a relatively low density of 1×10^5 cells/dish in 1 ml medium. At 24 h, the cells were exposed to nanocapsules in the same way as that described above for immediate cell viability studies. After cold shock, the cells were further cultured for 3 days to monitor their proliferation (long-term toxicity). This was done by taking at least 10 representative images of the samples every day including the day (taken as day 0) when the cells were exposed to nanocapsules. The total number of cells in each image were counted automatically using NIH ImageJ. […] The collagen production of cells exposed to 0 M trehalose and 0 mg/ml nanocapsules (control), 0.22 M extracellular trehalose and 0 mg/ml nanocapsules (trehalose without NE), and 0.22 M extracellular trehalose and 0.5 mg/ml extracellular nanocapsules (nanoencapsulated with trehalose) was quantified using the Sircol™ Assay kit (Biocolor, Belfast, N. Ireland). […] The absorbance at 540 nm wavelength of the dye was then measured using a BioTek Synergy 2 microplate reader (Winooski, Vt.). Collagen concentration in the collected medium was quantified by comparing its absorbance subtracted with the absorbance of the blank sample with that of the standards.

[2] = Nanoencapsulation and controlled release of trehalose (dialysis, trehalose assay kit); format: physicochemical
Procedure: The resultant freeze-dried mixture of extra-capsular trehalose and trehalose-loaded nanocapsules was either used immediately or stored at −20° C. for future use.
To determine whether trehalose can be withheld in the nanocapsule at 37° C. for controlled release, the freeze-dried mixture of trehalose and trehalose-loaded nanocapsules was preheated to 37° C. and dissolved in 2 ml warm water at 37° C. in a 15 ml centrifuge tube. The final overall trehalose (i.e., trehalose both inside and outside the nanocapsules) concentration in the solution was 15% (w/v) and the corresponding nanocapsule (excluding the encapsulated trehalose) concentration was 10 mg/ml. Therefore, the total amount of trehalose and nanocapsules (excluding the encapsulated trehalose) in the 2 ml solution was 0.3 and 0.02 g, respectively. The solution in the centrifuge tube was then transferred either after cooling at 22° C. (i.e., cold shocking) for 15 min or immediately into a Spectra/Por dialysis bag (MWCO, 50 kDa) and placed in a beaker containing 1 L of deionized water kept warm at 37° C. with constant stirring using a hotplate/stirrer for 5 hr. It is expected that the 15 min cooling at 22° C. followed by heating at 37° C. in the beaker should result in a quick release of nanoencapsulated trehalose as a result of the more than 15 times of volume expansion and contraction in response to the temperature variation. Control experiments were performed similarly except that 2 ml of 15% (w/v) pure trehalose solution (i.e., in the absence of nanocapsules) was used in the dialysis tube. […] Trehalose concentration in the 0.5 ml samples was determined using a trehalose assay kit (Megazyme Co., Wicklow, Ireland) by following the manufacturer's instructions. […] The absorbance at 340 nm of NADPH was then measured using a Shimazu (Columbia, Md.) UV-2101PC spectrophotometer to determine the amount of trehalose in the original sample.

3T3 fibroblasts [3] = assay: Nanocapsule assisted intracellular delivery of trehalose; format: cell-based; settings: extracellular trehalose 0.165 M (nanocapsule 0.375 mg/ml where present), 40 min at 37° C.
Procedure: The procedures performed for cellular uptake of the trehalose loaded nanocapsules was the same as that described in section 2.6 for the uptake of empty nanocapsules. […] The cells were then detached/lysed in deionized water with the aid of a cell scraper. The cells were further lysed using three cycles of freezing and thawing in liquid nitrogen and 37° C. water bath, respectively. The lysed cell suspension was homogenized for 10 min by sonication using a Branson ultrasonic cleaner (Danbury, Conn.) followed by a brief vortex-mixing. After centrifuging at 10,000 g for 10 min, the supernatant of each sample was divided into two aliquots. One aliquot was used to determine trehalose concentration in the sample using the trehalose assay kit (Megazyme Co. Wicklow, Ireland) as described in the previous section. […] The other aliquot was used to determine cell density in the sample based on its DNA content measured using a method described in Dunn et. al, Long-term in vitro function of adult hepatocytes in a collagen sandwich configuration, Biotechnol Prog 1991 May-Jun;7(3):237-245. […] With the trehalose concentration and cell density in the sample being measured, the total amount of intracellular trehalose and the total number of cells (and thus the total osmotically active cell volume) can be calculated. Therefore, the intracellular trehalose concentration can be determined.

OC[C@H]1O[C@H](O[C@H]2O[C@H](CO)[C@@H](O)[C@H](O)[C@H]2O)[C@H](O)[C@@H](O)[C@@H]1O [Trehalose w/o NE, α,α-trehalose]
3 day collagen production vs control (3T3 fibroblasts [1]): No significant differences | 3 day cell proliferation vs control (NIH 3T3 fibroblasts): No significant differences | time for trehalose release from the dialysis bag to reach equilibrium ([2]; 2 ml of 15% (w/v) into 1 L deionized water at 37° C.): approximately 2 hours | trehalose released from the dialysis tube ([2]; after one hour, 37° C.): more than 80% | trehalose concentration in the 1 L solution outside the dialysis tube ([2]; at 2 hr, 37° C., no cold shock): 0.3 g/L | intracellular trehalose concentration (3T3 fibroblasts [3]): 0.02 M
